Molecules are shown by their SMILES. In brackets after ≈: the same amount, converted by molar mass. Records with an inconclusive call do not appear. Activity calls are given as the source filed them. The rule behind the calls is not given here. Some results are limits rather than exact numbers.

The record followed here is PubChem BioAssay AID1949 (Southern Research Institute, 2009).

This assay relates to M. tuberculosis H37Rv growth inhibition. As to the kind of experiment: Mycobacterium tuberculosis H37Rv growth inhibition, cell based, confirmatory dose response (AID 1949).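 Note: bacteria grown 7 days with compound before Alamar blue readout.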

For `CCN1CCN(c2ccc(NC(=O)c3cc4ccccc4cc3OC)cc2Cl)CC1`, the IC50 was 23.9 mg/L (≈ 56.5 µM).

Consider `CCc1nc2sc(C(=O)c3ccccc3)c(N)c2cc1C`, for which the IC50 is > 50 mg/L (inactive).

For `CC(Sc1nnc(N)s1)C(=O)Nc1nc2c(s1)CCCC2` (stereo unspecified), the concentration for half-maximal inhibition (IC50) was 0.75 mg/L (≈ 2.2 µM).

Consider `Clc1ccc(C2=CC(c3ccc(Cl)cc3)n3nnnc3N2)cc1` (stereo unspecified), for which the IC50 was 2.07 mg/L (≈ 6.01 µM).

In the case of `COc1ccc(Br)cc1C(=O)Nc1ccc(N2CCN(C)CC2)cc1`, the IC50 is 12.6 mg/L (≈ 31.1 µM).

`COC(=O)COc1ccc(NC(=O)c2ccc3c(c2)C(=O)N(C(C)(C)C)C3=O)cc1`: the IC50 was 0.32 mg/L (≈ 0.78 µM).

As to `CCOc1ccc(OCC(=O)Nc2cc(C)cc(C)c2)cc1`, the 50% inhibitory concentration (IC50) was 1.51 mg/L (≈ 5.04 µM).

As for `Cc1ccn2c(-c3csc(Nc4ccccn4)n3)c(C)nc2c1`, the IC50 is 0.24 mg/L (≈ 0.747 µM).

Consider `CC(C)(C)c1ccc(C(=O)N2CCC(C(=O)N3CCN(c4cccc(Cl)c4)CC3)CC2)cc1`, for which the IC50 is > 50 mg/L (inactive).

Take `Cc1ccc(C(C)(C)C)c(OCCCn2ccnc2)c1`: the half-inhibitory concentration (IC50) was 3.87 mg/L (≈ 14.2 µM).

For `CCCC(=O)N1CCN(c2ccc(NC(=O)COc3ccc(C(C)CC)cc3)cc2Cl)CC1` (stereo unspecified), the IC50 is 11.3 mg/L (≈ 24 µM).

Turning to `Cc1cc(-n2c(C)cc(/C=C3\NC(=O)NC3=O)c2C)ccc1Br`, the IC50 is 8.38 mg/L (≈ 22.4 µM).

For the molecule `Cc1ccc2nc(N/N=C\c3ccc([N+](=O)[O-])o3)nc(-c3ccccc3)c2c1`, the half-inhibitory concentration (IC50) was 3.63 mg/L (≈ 9.72 µM).

In the case of `Cc1ccc(Cn2cnc3sc4c(c3c2=O)CCCC4)cc1`, the IC50 is 8.41 mg/L (≈ 27.1 µM).

Take `O=C(NCCC12CC3CC(CC(C3)C1)C2)c1ccc(Br)cc1`: the IC50 is 0.28 mg/L (≈ 0.773 µM).

Regarding `O=c1c2ccccc2nc(/C=C/c2ccc([N+](=O)[O-])o2)n1CCCO`, the concentration for half-maximal inhibition (IC50) is less than 0.1 mg/L.

For the molecule `O=C(Nc1nccs1)c1cn(-c2ccccc2)nc1-c1ccco1`, the IC50 was > 50 mg/L (inactive).

With `Cc1cc(Cl)ccc1NC(=O)CCc1ccc(S(=O)(=O)NC(C)C)cc1`, the IC50 was 2.93 mg/L (≈ 7.42 µM).

Turning to `O=C1NC(=O)N(c2ccc(Cl)cc2)C(=O)/C1=C\c1ccc([N+](=O)[O-])s1`, the concentration for half-maximal inhibition (IC50) was 5.58 mg/L (≈ 14.8 µM).

On to `CC(C)(C)c1ccc(Cn2cnc([N+](=O)[O-])n2)cc1`, for which the IC50 is less than 0.1 mg/L.

On to `Cc1ccc(CNC(=S)Nc2ccc(N(C)C)cc2)cc1`, for which the IC50 is 5.34 mg/L (≈ 17.8 µM).

In the case of `CC(C)c1ccc(OCC(=O)NNC(=S)NC(=O)c2ccco2)c(Br)c1`, the IC50 is 0.25 mg/L (≈ 0.568 µM).

As for `COc1ccc(NC(=O)c2c(NC(=O)c3ccc([N+](=O)[O-])o3)sc3c2CCC3)cc1`, the IC50 is 0.26 mg/L (≈ 0.608 µM).

For `O=[N+]([O-])c1ccc(NCCNc2nc(N3CCCC3)nc3ccccc23)cc1`, the IC50 is 1.06 mg/L (≈ 2.8 µM).

Take `O=c1c2ccccc2nc(CSc2ncnc3ccccc23)n1-c1ccc(Cl)c(Cl)c1`: the IC50 is > 50 mg/L (inactive).

Regarding `C/C(Cl)=C/Cc1c(C)[nH]c2ccccc2c1=O`, the IC50 was 16.6 mg/L (≈ 67.2 µM).

Take `c1ccc2nc3c(nc2c1)Nn1cnnc1S3`: the IC50 is > 50 mg/L (inactive).

In the case of `Cc1ccc(-c2cc(C(F)F)n3ncc(C(=O)N4CCc5ccccc5C4)c3n2)cc1`, the IC50 was 38.3 mg/L (≈ 91.6 µM).

As for `O=C(NCc1ccccc1)c1cc2cc(Cl)cc(Cl)c2oc1=O`, the IC50 is > 50 mg/L (inactive).

In the case of `Cc1nc2ccc(C(=O)OCc3cccc(F)c3)cc2nc1C`, the IC50 was 1.68 mg/L (≈ 5.41 µM).

For `CC(=O)Oc1cccc2ccc(/C=C/c3c(F)cccc3Cl)nc12`, the IC50 is less than 0.1 mg/L.

Turning to `CCCCOC(=O)c1cccc(NC(=O)c2cccc(Cl)c2)c1`, the IC50 was 4.03 mg/L (≈ 12.1 µM).

Regarding `Cc1ccc(-n2c(=O)oc3ccc(Cl)cc3c2=O)cc1Cl`, the IC50 was 1.08 mg/L (≈ 3.35 µM).

On to `O=C(CNS(=O)(=O)c1cccc(C(F)(F)F)c1)N1CCN(c2ccc(Cl)c(Cl)c2)CC1`, for which the IC50 is 4.79 mg/L (≈ 9.65 µM).

For `Nc1ncnc(Sc2nc3ccccc3s2)c1[N+](=O)[O-]`, the IC50 was 0.5 mg/L (≈ 1.64 µM).

As to `O=C(OCc1ccccc1Cl)C1(O)c2ccccc2-c2ccccc21`, the IC50 is 2.76 mg/L (≈ 7.87 µM).

Regarding `CCOC(=O)Cc1nc2cc(Cl)ccc2o1`, the IC50 is 10.4 mg/L (≈ 43.5 µM).

As to `Cc1c(C(=O)Nc2ccc(Cl)cc2)sc(N)c1C(=O)OC(C)C`, the IC50 is 7.88 mg/L (≈ 22.3 µM).

For the molecule `CC(=O)Oc1cccc2ccc(/C=C/c3ccc(Cl)cc3)nc12`, the IC50 is less than 0.1 mg/L.

For the molecule `O=[N+]([O-])c1cc(CN2CCN(c3ccccc3)CC2)c(O)c2ncccc12`, the half-inhibitory concentration (IC50) was 6.09 mg/L (≈ 16.7 µM).

For `COC(=O)CSc1nnc(NC(=O)c2ccc(C(C)(C)C)cc2)s1`, the half-inhibitory concentration (IC50) was less than 0.1 mg/L.

In the case of `Cc1ccc(Cl)cc1N1CCN(C(=O)CC23CC4CC(CC(C4)C2)C3)CC1`, the IC50 is 4.43 mg/L (≈ 11.4 µM).

Consider `CC(Oc1ccc(C(=O)NC2CCCCC2)cc1)C(=O)OCc1ccccc1Cl` (stereo unspecified), for which the IC50 is 0.95 mg/L (≈ 2.28 µM).

Take `O=C(CSc1ccc(Br)cc1)Nc1cccc(Cl)c1`: the IC50 is 1.51 mg/L (≈ 4.23 µM).

On to `CC1CCN(c2ccc(NC(=O)c3ccc([N+](=O)[O-])o3)cc2)CC1`, for which the IC50 was 0.31 mg/L (≈ 0.941 µM).

On to `Cc1cccc(OCCCn2cnc3cc(C)c(C)cc32)c1`, for which the IC50 was 1.84 mg/L (≈ 6.25 µM).

Take `Cc1cccc(C)c1OCC(=O)N/N=C/c1ccc(O)c([N+](=O)[O-])c1`: the half-maximal inhibitory concentration (IC50) is 0.36 mg/L (≈ 1.05 µM).

As for `CC1C(c2ccc(Cl)cc2)NC(c2ccc(Cl)cc2)C(C)C1(O)c1ccc(F)cc1` (stereo unspecified), the IC50 is > 50 mg/L (inactive).

As to `Cc1cccc(NC(=S)NCCN2CCN(c3ccc(F)c(Cl)c3)CC2)c1C`, the IC50 is 2.79 mg/L (≈ 6.63 µM).

For `COc1ccccc1-c1coc2cc(OCC(=O)OCc3ccccc3)ccc2c1=O`, the IC50 is 0.35 mg/L (≈ 0.84 µM).

For `O=C(Oc1ccc(Cl)c2cccnc12)c1cccc(Br)c1`, the IC50 was 10.6 mg/L (≈ 29.3 µM).

As usually defined, the IC50 is the concentration that inhibits the measured activity by half.
